Experimental data published in patent US20250024870A1, “NATURAL SUGAR-FREE SYRUP, AND PRODUCTION METHOD THEREOF” (CJ CHEILJEDANG CORPORATION, priority 2021, published 2025).

Columns and labels:
Type in all cases: cell-based
Fungi (Asp. niger) [1] = assay: Minimum inhibitory concentration (MIC), paper disc diffusion method, fungi; conditions: legend not given
Description: (§1) [table] The minimum inhibitory concentration (MIC) was conducted to confirm the antibacterial activity of each antibacterial agent and the minimum concentration showing antibacterial activity against the target strain, and the paper disc diffusion method was used as the experimental method. […] It was confirmed that if the bacteria had antibacterial activity, the proliferation of bacteria was inhibited as a clear zone was created around the paper.

[2] = system: General bacteria, bacteria derived from flavor syrup; assay: Microbial challenge test (MCT) in sucrose-zero vanilla syrup, general bacteria; conditions: for general bacteria count: single concentration as printed in the row; for general bacteria count, Max.: Max. concentration of agent; for general bacteria count, Min.: Min. concentration of agent
Description: (§2) Subsequently, the microbial challenge test (MCT) was conducted in the following order. The experiment was applied to the vanilla syrup, which is the representative among the sucrose syrup, the vanilla syrup, and the red grapefruit syrup, and the applied strains and analysis conditions are shown in Table 14.
(§3) The microbial challenge test (MCT) experiment conditions are as follows: 1) prepare a sucrose-zero vanilla syrup; 2) prepare general bacteria/fungi/spores that have completed proliferation; 3) inject 10^3 cfu/ml of bacteria into a sterilized glass container (100 ml); 4) fill 3) with sucrose-zero vanilla syrup at the filling temperature (80° C. or higher); 5) let it stand after cooling; 6) one day after the cooling of the stationary sample was completed, culture was performed on a weekly basis; and 7) verify the trend of bacterial proliferation or decline for each natural antibacterial agent for 4 weeks.

[3] = system: General bacteria (T.A.B), bacteria derived from flavor syrup; assay: Minimum inhibitory concentration (MIC), paper disc diffusion method, general bacteria; conditions: legend not given
Description: as §1

Spores (B. subtilis) [4] = assay: Minimum inhibitory concentration (MIC), paper disc diffusion method, spores; conditions: legend not given
Description: as §1

Spores (B. subtilis) [5] = assay: Microbial challenge test (MCT) in sucrose-zero vanilla syrup, spores; conditions: for spores count: single concentration as printed in the row; for spores count, Max.: Max. concentration of agent; for spores count, Min.: Min. concentration of agent
Description: as §2, §3

Fungi (Asp. niger) [6] = assay: Microbial challenge test (MCT) in sucrose-zero vanilla syrup, fungi; conditions: for fungi count: single concentration as printed in the row; for fungi count, Max.: Max. concentration of agent; for fungi count, Min.: Min. concentration of agent
Description: as §2, §3

[7] = immediately after inoculation of target bacteria

C/C=C/C=C/C(=O)[O-].[K+] [Potassium sorbate, reference compound]
Antibacterial activity (clear zone), fungi (Fungi (Asp. niger) [1]; 300 ppm): ∘ | Antibacterial activity (clear zone), fungi (Fungi (Asp. niger) [1]; 400 ppm): ∘ | Antibacterial activity (clear zone), fungi (Fungi (Asp. niger) [1]; 500 ppm): ∘ | Antibacterial activity (clear zone), fungi (Fungi (Asp. niger) [1]; 1,000 ppm): ∘ | general bacteria count ([2]; after 1 week): 93 | general bacteria count ([2]; after 2 weeks): 83 | general bacteria count ([2]; after 3 weeks): 80 | general bacteria count ([2]; after 4 weeks): 78 | general bacteria count [2, 7]: 98 | Antibacterial activity (clear zone), general bacteria (T.A.B) ([3]; 300 ppm): ∘ | Antibacterial activity (clear zone), general bacteria (T.A.B) ([3]; 400 ppm): ∘ | Antibacterial activity (clear zone), general bacteria (T.A.B) ([3]; 500 ppm): ∘ | Antibacterial activity (clear zone), general bacteria (T.A.B) ([3]; 1,000 ppm): ∘ | Antibacterial activity (clear zone), spores (Spores (B. subtilis) [4]; 300 ppm): ∘ | Antibacterial activity (clear zone), spores (Spores (B. subtilis) [4]; 400 ppm): ∘ | Antibacterial activity (clear zone), spores (Spores (B. subtilis) [4]; 500 ppm): ∘ | Antibacterial activity (clear zone), spores (Spores (B. subtilis) [4]; 1,000 ppm): ∘ | spores count (Spores (B. subtilis) [5]; after 1 week): 873 | spores count (Spores (B. subtilis) [5]; after 2 weeks): 876 | spores count (Spores (B. subtilis) [5]; after 3 weeks): 850 | spores count (Spores (B. subtilis) [5]; after 4 weeks): 860 | spores count (Spores (B. subtilis) [5]; [7]): 880 | fungi count (Fungi (Asp. niger) [6]; after 1 week): 63 | fungi count (Fungi (Asp. niger) [6]; after 2 weeks): 66 | fungi count (Fungi (Asp. niger) [6]; after 3 weeks): 60 | fungi count (Fungi (Asp. niger) [6]; after 4 weeks): 58 | fungi count (Fungi (Asp. niger) [6]; [7]): 68

E-polylisine [E-polylysine]
Antibacterial activity (clear zone), fungi (Fungi (Asp. niger) [1]; 400 ppm): ∘ | Antibacterial activity (clear zone), fungi (Fungi (Asp. niger) [1]; 500 ppm): ∘ | Antibacterial activity (clear zone), fungi (Fungi (Asp. niger) [1]; 1,000 ppm): ∘ | general bacteria count, Max. ([2]; after 1 week): 126 | general bacteria count, Min. ([2]; after 1 week): 129 | general bacteria count, Max. ([2]; after 2 weeks): 115 | general bacteria count, Min. ([2]; after 2 weeks): 120 | general bacteria count, Max. ([2]; after 3 weeks): 110 | general bacteria count, Min. ([2]; after 3 weeks): 120 | general bacteria count, Max. ([2]; after 4 weeks): 108 | general bacteria count, Min. ([2]; after 4 weeks): 110 | general bacteria count, Max. [2, 7]: 129 | general bacteria count, Min. [2, 7]: 132 | Antibacterial activity (clear zone), general bacteria (T.A.B) ([3]; 200 ppm): ∘ | Antibacterial activity (clear zone), general bacteria (T.A.B) ([3]; 300 ppm): ∘ | Antibacterial activity (clear zone), general bacteria (T.A.B) ([3]; 400 ppm): ∘ | Antibacterial activity (clear zone), general bacteria (T.A.B) ([3]; 500 ppm): ∘ | Antibacterial activity (clear zone), general bacteria (T.A.B) ([3]; 1,000 ppm): ∘ | Antibacterial activity (clear zone), spores (Spores (B. subtilis) [4]; 400 ppm): ∘ | Antibacterial activity (clear zone), spores (Spores (B. subtilis) [4]; 500 ppm): ∘ | Antibacterial activity (clear zone), spores (Spores (B. subtilis) [4]; 1,000 ppm): ∘ | spores count, Max. (Spores (B. subtilis) [5]; after 1 week): 720 | spores count, Min. (Spores (B. subtilis) [5]; after 1 week): 870 | spores count, Max. (Spores (B. subtilis) [5]; after 2 weeks): 773 | spores count, Min. (Spores (B. subtilis) [5]; after 2 weeks): 850 | spores count, Max. (Spores (B. subtilis) [5]; after 3 weeks): 780 | spores count, Min. (Spores (B. subtilis) [5]; after 3 weeks): 800 | spores count, Max. (Spores (B. subtilis) [5]; after 4 weeks): 720 | spores count, Min. (Spores (B. subtilis) [5]; after 4 weeks): 830 | spores count, Max. (Spores (B. subtilis) [5]; [7]): 720 | spores count, Min. (Spores (B. subtilis) [5]; [7]): 880 | fungi count, Max. (Fungi (Asp. niger) [6]; after 1 week): 135 | fungi count, Min. (Fungi (Asp. niger) [6]; after 1 week): 147 | fungi count, Max. (Fungi (Asp. niger) [6]; after 2 weeks): 130 | fungi count, Min. (Fungi (Asp. niger) [6]; after 2 weeks): 137 | fungi count, Max. (Fungi (Asp. niger) [6]; after 3 weeks): 128 | fungi count, Min. (Fungi (Asp. niger) [6]; after 3 weeks): 130 | fungi count, Max. (Fungi (Asp. niger) [6]; after 4 weeks): 125 | fungi count, Min. (Fungi (Asp. niger) [6]; after 4 weeks): 128 | fungi count, Max. (Fungi (Asp. niger) [6]; [7]): 138 | fungi count, Min. (Fungi (Asp. niger) [6]; [7]): 150
